# Results as given in patent US10471063B2, “Drug combination of PDE3/PDE4 inhibitor and muscarinic receptor antagonist” (VERONA PHARMA PLC, priority 2013, dated 2019).
# Like-named read-outs stand apart in the source and are kept apart here. Marks after values point to notes of the source that are not given here.
# How the values were obtained:
# [1] = tested on: human isolated bronchi; assay: Duration of action on EFS (3, 10, 25 Hz)-contracted human isolated bronchi, RPL554 and glycopyrronium at EC30; type: cell-based; settings: administered alone
# Procedure: Bronchial rings from 6 patients were incubated in Krebs-Henseleit solution (37° C.) aerated with O2/CO2 (95/5%) under 0.5-1.0 g tension. The duration of action (30% maximal relaxation, EC30) of RPL554 and glycopyrronium, alone or in combination, was studied in tissue contracted with 3, 10 or 25 Hz electrical field stimulation (EFS). Bronchial tone was expressed as % of maximal response to papaverine (Emax) and the area under the curve (AUC) of the contractile response was assessed. Drug mixture effects were analyzed by Bliss Independence theory. Values (n=3) are mean±SEM.
# [2] = tested on: human isolated bronchioles (small bronchi <1 mm diameter); assay: Relaxation of small human bronchi in precision cut lung slices contracted with carbachol (EC70); type: cell-based; settings: for IC50: Homo sapiens, relaxation of bronchioles, CCh EC70, mean±SEM, n=3, read-out: pD2 (negative logarithm of IC50) (converted)
# Procedure: Precision cut lung slices (PCLSs) from 6 patients were incubated in Krebs-Henseleit solution (37° C.) aerated with O2/CO2 (95:5%). The concentration response to RPL554 and glycopyrronium, administered alone and in combination at isoeffective concentrations, was assessed at sub-maximal contraction (70% maximum, EC70) induced by carbachol (CCh). […] Drug mixture effects were analyzed by Bliss Independence theory. Values (n=3) are mean±SEM.
# [3] = tested on: airways obstruction induced by bombesin in guinea pigs; assay: Reversal of bombesin-induced airways obstruction (total lung resistance); type: in vivo
# Procedure: (§1) Guinea pigs were anaesthetised and ventilated. Airway obstruction was induced by the intravenous administration of bombesin (2 μg/ml; 5 ml/hr). Bronchodilation was induced by the iv. administration of RPL554 alone at various doses, or in combination with sub maximal doses of atropine (2 μg/kg). […] Total lung resistance (RL) and mean arterial blood pressure were measured. Data are expressed as % reduction in airways obstruction or blood pressure.
# [4] = tested on: human isolated bronchial rings; assay: Relaxation of human isolated bronchial rings pre-contracted with acetylcholine (EC70); synergy analysis (Bliss Independence, Berenbaum); type: cell-based
# Excerpt: In the laboratory, airways were dissected from connective and alveolar tissues. Then, segmental bronchi were isolated and stored overnight in KH buffer solution at refrigeration temperature. […] Bronchial rings were mounted on hooks in the organ baths where one hook was attached with threaded to a stationary rod and the other hook tied with thread to an isometric force displacement transducer. […] Then, concentration response curves were constructed to test individual compound RPL554 and muscarinic receptor antagonist alone; as well as RPL554 administered in combination with a muscarinic receptor antagonist in order to produce isobolar graphs as described elsewhere (Greco et al., 1995; Tallarida, 2001; Goldoni and Johansson, 2007; Boik et al., 2008; Lee, 2010). […] Goodman et al., 2008). E/Emax was expressed as percentage of Emax elicited by the contractile agents; […] The analysis of the potential synergism between RPL554 plus muscarinic receptor antagonist was measured by applying the Berenbaum method, the Bliss Independence (BI) criterion and the Loewe Additivity (LA) model through curved isoboles (Berenbaum, 1977; Greco et al., 1995; Grabovsky and Tallarida, 2004; Tallarida, 2006; Goldoni and Johansson, 2007; Tallarida and Raffa, 2010). […] Lee, 2010). The BI theory for two agents is expressed by the following equation: E(x,y)=Ex+Ey-(Ex*Ey), where E is the fractional effect, and x and y are the concentrations of two compounds in a combination experiment. If the combination effect is higher than the expected value from the above equation, the interaction is considered synergistic, while if this effect is lower, the interaction is antagonistic. […] In this study, the BI equation was characterized by X=RPL554 and Y=muscarinic receptor antagonist. […] The additive response (Eab) for each dose combination with respect to B was then calculated by insertion of B into EB=f(B). The difference between the observed relaxation response to the combination doses and the additive response was calculated and analysed using a one sample t-test and for multiple comparisons, the probability was adjusted for multiple comparisons using a Bonferroni correction. For illustrative purposes, the 1:1 dose combinations were analysed for synergy. […] Tallarida, 2001; Goldoni and Johansson, 2007; Boik et al., 2008; Lee, 2010).
# [5] = Mean arterial blood pressure in bombesin-treated anaesthetised guinea pigs; type: in vivo; settings: RPL554 20 μg/kg iv (combination: + 2 μg/kg atropine)
# Procedure: as §1
# [6] = tested on: passively sensitized human isolated bronchi; assay: Contraction induced by histamine in passively sensitized human bronchi pre-incubated with RPL554; type: cell-based
# Procedure: Human isolated bronchial rings were rotated overnight at room temperature in tubes containing KH buffer solution in the absence (non-sensitized control rings) or the presence of 10% vol^−1 sensitizing serum (sensitized rings) as described elsewhere (Watson et al., 1997; Rabe, 1998). Subjects suffering from atopic asthma (total IgE>250 U ml^−1 specific against common aeroallergens) during exacerbation provided signed consent for serum donation. Sera was prepared by centrifugation of whole blood and sera samples were frozen at −80° C. in […] until required.
# The next morning, after removal of adhering alveolar and connective tissues, bronchial rings were transferred into an organ bath containing KH buffer (37° C.) and continuously gassed with a 95% O2/5% CO2. Tissues were pre-incubated for 30 min with RPL554 (1, 10 and 100 μM) and then followed (without washing) by the construction of concentration responses curve to histamine (10 nM-1 mM) in the presence of RPL554.
# Appropriate curve-fitting to a sigmoidal model was used to calculate the effect (E), the Emax and the concentration required to cause a 50% maximal effect (EC50). The equation used was log [agonist] vs. response, Variable slope, expressed as Y=Bottom+(Top−Bottom)/{1+10^[(Log EC50−X)*HillSlope]} (Motulsky and Christopoulos, 2004; Goodman et al., 2008). E/Emax was expressed as percentage of Emax elicited by the contractile agents; EC50 values were converted to pD2 for statistical analysis (Goodman et al., 2008) and the relaxant responses were expressed as a percentage of papaverine (500 μM) induced relaxation.
# [7] = tested on: human isolated bronchial preparations; assay: Inhibition of EFS (10 Hz)-induced contraction of human isolated bronchial rings; type: cell-based
# Procedure: Regions of macroscopically normal lungs were taken from uninvolved areas resected from 24 subjects (11 male and 13 female, 60.1±1.6 years old) undergoing lobectomy surgery for lung cancer, but without a history of chronic airway disease.
# Airways were immediately placed into oxygenated Krebs-Henseleit buffer solution (KH) (mM: NaCl 119.0, KCl 5.4, CaCl2 2.5, KH2PO4 1.2, MgSO4 1.2, NaHCO3 25.0, glucose 11.7; pH 7.4) containing the cyclooxygenase (COX) inhibitor indomethacin (5.0 μM), and transported at 4° C. from the “Regina Elena National Cancer Institute” or the “Sant' Andrea Hospital” to the Respiratory Research Laboratory in the Surgery and Medicine Faculty of “Tor Vergata University”, Rome, Italy. None of the subjects were chronically treated with theophylline, β2-agonists or glucocorticosteroids. Serum IgE levels determined on the day of surgery were in the normal range. Preoperative lung function parameters were generally normal and there were no signs of respiratory infections.
# In the laboratory, airways were dissected from connective and alveolar tissues. Then, segmental bronchi were isolated and stored overnight in KH buffer solution at refrigeration temperature. […]
# Human bronchi were placed in organ baths containing KH buffer solution (37° C.) medicated with indomethacin (5.0 μM), bubbled with 95% O2/5% CO2 and suspended under passive tension (0.5-1.0 g). […] Changes in isometric tension were measured with a transducer (Fort 10 WPI, Basile, Instruments, Italy) and the tissue responsiveness was assessed by acetylcholine (100 μM); when the response reached a plateau, rings were washed three times and allowed to equilibrate for 45 min. […]
# Bronchial contractile tension induced by EFS was measured as a percentage of control bronchi, and polynomial curves were constructed by fitting models of biological data using nonlinear regression as described elsewhere (Motulsky and Christopoulos, 2004). […]
smiles,measurement,setting,value
"C[N+]1(C)CCC(OC(=O)C(O)(c2ccccc2)C2CCCC2)C1 (centres unmarked) [glycopyrronium, reference compound]",Time for which the effect was detectable,[1],4 h
same,Time of maximal relaxation,[1],50 ± 10 min
same,Effect on CCh-induced contraction,[2],abolished
same,IC50,[2],0.631 nM
"COc1cc2c(cc1OC)-c1cc(=Nc3c(C)cc(C)cc3C)n(CCNC(N)=O)c(=O)n1CC2 [RPL554, 9,10-Dimethoxy-2-(2,4,6-trimethylphenylimino)-3-(N-carbamoyl-2-aminoethyl)-3,4,6,7-tetrahydro-2H-pyrimido[6,1-a]isoquinolin-4-one]",Time for which the effect was detectable,[1],4 h
same,Time of maximal relaxation,[1],160 ± 20 min
same,% Reduction in airways obstruction,[3]; RPL554 10 μg/kg iv (combination: + atropine 2 μg/kg),7.4 + 1.9%
same,% Reduction in airways obstruction,[3]; RPL554 20 μg/kg iv (combination: + atropine 2 μg/kg),24.6 + 4.3%
same,% Reduction in airways obstruction,[3]; RPL554 40 μg/kg iv (combination: + atropine 2 μg/kg),55.2 + 6.2%
same,% Reduction in airways obstruction,[3]; RPL554 80 μg/kg iv (combination: + atropine 2 μg/kg),65.1 + 5.3%
same,Effect on CCh-induced contraction,[2],abolished
same,IC50,[2],1000 nM
same,Emax,"[4]; acetylcholine EC70 pre-contraction, percentage of papaverine (500 μM) relaxation, mean±SD, n=5, read-out: Emax (relaxation)",100%
same,EC50,"[4]; relaxation of acetylcholine pre-contracted bronchi, n=5, read-out: EC50 (geomean, 95% CI)",21200 nM
same,reduction in mean arterial blood pressure,[5],37.3+6.7%
same,Emax at 1 µM,"[6]; Homo sapiens, RPL554 1 uM, mean ± SEM, n=5",70.3 ± 2.7%
same,Emax at 10 µM,"[6]; Homo sapiens, RPL554 10 uM, mean ± SEM, n=5",58.1%
same,pD2 of histamine,[6]; RPL554 1 uM,4.97 ± 0.07***
same,pD2 of histamine,[6]; RPL554 10 uM,4.98
same,Effect on contraction induced by histamine,[6]; RPL554 100 μM,completely abolished
same,Emax at 100 µM,"[7]; Homo sapiens, RPL554 100 μM, 10 Hz EFS, read-out: Emax, inhibition of contractile response induced by EFS",91.3 ± 3.37%
same,"T1/2 (offset, time to evoke half of maximal relaxation)","[7]; RPL554 100 μM, 10 Hz EFS",23.7 ± 12.3 min
same,Duration of inhibition of EFS contractile response after exposure,[7]; after termination of drug exposure,at least 5 h
"CN1[C@@H]2CC[C@H]1C[C@@H](OC(=O)C(CO)c1ccccc1)C2 (some centres unmarked) [atropine, reference compound]",reduction in airways obstruction,[3]; atropine 2 μg/kg alone,22.3 ± 4.9%
same,EC50,"[4]; read-out: EC50 (geomean, 95% CI)",1180 nM
same,Emax,[4]; read-out: Emax (relaxation),66 ± 14%
